Values of other authors in patent publication US20110230399A1, “Methods for Treating Obesity Related Disease” (priority 2008, published 2011).

Key:
[1] = in vivo
hypothalamic slices = details: in vitro

Substance: NPY13-36: Neuropeptide Y fragment 13-36; full agonist at the Y2 receptor
- stimulation of food intake [1]: does not stimulate food intake
- NPY release from hypothalamic slices (hypothalamic slices): inhibits NPY release
